Test results: patent US20230280333A1, “FOREIGN SUBSTANCE INTRODUCTION CONSTRUCT AND USE THEREOF” (TOAGOSEI CO., LTD., priority 2022, published 2023)
Where no end group is shown, it is not given here.

Assays:
[1] = tested on: nucleolus; assay: Nucleolar transferability stated in the description, no method shown; type: cell-based
[2] = tested on: cell membrane of eukaryotic cells; assay: Cell membrane permeability stated by the inventors, no data or method shown; type: cell-based; conditions: detailed data not provided
[3] = tested on: HeLa cells; assay: Evaluation of the cell membrane permeability by flow cytometry; type: cell-based, human; conditions: for MFI: mean fluorescent intensity of HeLa cells, 10 μM in culture medium, 0.5% DMSO, 20 hours at 37° C., FL2 detector; for MFI compared between examples, in words / cell membrane permeability, conclusion in words: HeLa cells, 10 μM, 20 hours; for cell membrane permeability, conclusion in words: FAM-labelled constructs
Description: The cell membrane permeability of peptides 1 to 4 was analyzed using HeLa cells (an established cell line derived from human cervical cancer cells) as the eukaryotic cells.
HeLa cells were cultured on DMEM (Dulbecco's modified Eagle's medium (Cat. No. 043-30085, from FUJIFILM Wako Pure Chemical Corporation)) containing 10% FBS (fetal bovine serum), which is a general culture medium.
The HeLa cells attached to the culture plate were washed with PBS, a 0.25% trypsin/EDTA solution was then added, and incubation was carried out for 3 minutes at 37° C. After this incubation, the aforementioned DMEM containing 10% FBS was added and the trypsin was inactivated, and the cells were then sedimented by carrying out centrifugal separation for 5 minutes at 150×g. The supernatant produced by the centrifugal separation was removed, and the aforementioned DMEM containing 10% FBS was added to the sediment (cell pellet) to prepare a cell suspension containing approximately 2×10^5 cells/mL. The cells were seeded (approximately 2×10^5 cells/well) by the addition of 1 mL of this cell suspension to the wells of a commercial 6-well plate (Iwaki). In addition, the 2 mM sample solution 1 was diluted with the aforementioned DMEM containing 10% FBS to prepare a sample solution 1 in which the sample 1 concentration was 20 μM. 1 mL of this 20 sample solution 1 was added to a well (i.e., the concentration of sample 1 in the culture medium in the wells was brought to 10 μM and the DMSO concentration was brought to 0.5%). The cells were subsequently incubated for 20 hours at 37° C. under the condition of 5% CO2.
After this 20-hour incubation, the culture supernatant was removed from a well and the cells in the well were washed twice with 1 mL PBS. 200 μL of a 0.25% trypsin/EDTA solution was then added to the well and incubation was carried out for 3 minutes at 37° C. After this incubation, the trypsin was inactivated by the addition of 400 μL of the aforementioned DMEM containing 10% FBS to the well, and the cells were subsequently recovered by transferring the cell suspension in a well to a tube. The well was then washed by the further addition of 600 μL PBS to the well. The cells that had remained in the well were recovered to the tube by transferring the PBS in the well to the tube. Centrifugal separation was run on this tube for 5 minutes using conditions of 4° C. and 210×g. After the centrifugal separation, the supernatant was removed, the sediment (cell pellet) was suspended (washed) with 1 mL of PBS, and centrifugal separation was carried out using the same conditions as before. After this procedure had been performed twice, the supernatant was removed to obtain cells (cell pellet) that had been cultured on a sample 1-containing culture medium.
The cell permeability of sample 1 was analyzed using the resulting cells (cell pellet) and a flow cytometer. An On-Chip Flow Cytometer (On-chip Biotechnologies Co., Ltd.) was used for the flow cytometer.
For this analysis, the cell pellet obtained as described above was suspended in 50 μL PBS. To this suspension was added 50 μL of Sample Buffer 2× for use with the indicated flow cytometer to prepare a cell suspension for submission to analysis.
Gating was performed using this flow cytometer based on forward scatter (FSC) and side scatter (SSC); the gating was set for the cell population that was the target of the analysis; and the fluorescent intensity was measured for the cell population within this gating. The analysis was performed so the cell count for this cell population reached at least 10,000 or more. The FL2 fluorescence detector (optimal detection wavelength around 543 nm) on the indicated flow cytometer, which could detect the fluorescence wavelength of FAM, was used to measure the fluorescent intensity. […]

Substance: KKRTLRKKKRKKR (Ac-KKRTLRKKKRKKR) [Peptide 4, variant of LIM kinase 2 NoLS; synthesized with N-terminal acetylation]
- nucleolar transferability, in words [1]: excellent nucleolar transferability
- cell membrane permeability, statement in words [2]: higher cell membrane permeability than peptide comprising the amino acid sequence given by SEQ ID NO: 3

Substance: Ac-KKRTLRKSNRKKR-FAM [Example 3]
- MFI [3]: 12.4

Substance: Ac-KKRTLRKSNRKKRWPC-FAM (Ac-KKRTLRKSNRKKRWPC-{FAM}) [Example 1, foreign substance introduction construct provided with peptide 1, FAM bonded to the C-terminal side]
- MFI compared between examples, in words [3]: highest among Example 1, Example 3, and Example 3′
- MFI [3]: 87.5

Substance: KKRTLRKKKRKKRWPC (Ac-KKRTLRKKKRKKRWPC) [Peptide 2, carrier peptide fragment; synthesized with N-terminal α-amino group acetylated]
- cell membrane permeability, conclusion in words ([3]; listed as SEQ ID NO: 2): better cell membrane permeability than peptide composed of the amino acid sequence given by SEQ ID NO: 5

Substance: KKRTLRKSNRKKR (Ac-KKRTLRKSNRKKR) [Peptide 3, variant of LIM kinase 2 NoLS; synthesized with N-terminal acetylation]
- cell membrane permeability, statement in words [2]: higher cell membrane permeability than peptide comprising the amino acid sequence given by SEQ ID NO: 3

Substance: KKRTLRKSNRKKRWPC (Ac-KKRTLRKSNRKKRWPC) [Peptide 1, carrier peptide fragment; synthesized with N-terminal α-amino group acetylated]
- cell membrane permeability, conclusion in words ([3]; listed as SEQ ID NO: 1): better cell membrane permeability than peptide composed of the amino acid sequence given by SEQ ID NO: 4

Substance: 5(6)-carboxyfluorescein [Example 5, reference compound]
- MFI [3]: 10.3

Substance: Ac-KKRTLRKKKRKKRWPC-FAM (Ac-KKRTLRKKKRKKRWPC-{FAM}) [Example 2, foreign substance introduction construct provided with peptide 2, FAM bonded to the C-terminal side]
- MFI compared between examples, in words [3]: significantly higher MFI than Example 4
- MFI [3]: 121

Substance: Ac-KKRTLRKKKRKKR-FAM [Example 4]
- MFI [3]: 24.3

Substance: FAM-KKRTLRKSNRKKR-CONH2 [Example 3′]
- MFI [3]: 62
